{
  "source": "patent US9987333B2",
  "about": "“Method for suppressing malignant tumor metastasis” (Shionogi & Co., Ltd., priority 2012, dated 2018)",
  "key": {"Mouse melanoma B16-F10 [1]": {"tested_on": "Mouse melanoma B16-F10", "assay": "Tail vein injection metastasis test, mouse melanoma B16-F10, CDDP pretreatment with angiotensin II receptor antagonists (Example 2)", "assay_type": "in vivo, mice", "settings": "14 days; for exacerbation of lung metastasis caused by CDDP: oral, with CDDP 5 mg/kg, valsartan 40, losartan 30, olmesartan medoxomil 5, azilsartan 10, candesartan cilexetil 8, irbesartan 100 mg/kg", "method": "Eight-week-old male C57BL6 mice (purchased from Japan SLC, Inc.) were used. Mouse melanoma B16-F10 was purchased from ATCC, and cultured in DMEM (Life Technologies Corp.) containing 10% FCS under 5% CO2 at 37° C. The cells in a subconfluent state were treated with EDTA-trypsin, centrifuged, and then suspended in serum free DMEM so as to be 5×10^6 cells/mL. The melanoma cell suspension (100 μL/mouse, […]) was injected to the tail vein of the mice. As pretreatment, 5 mg/kg of cisplatin (CDDP) was injected to the tail vein of the mice 2 days before the injection of the melanoma cells into the tail vein. As an angiotensin II receptor antagonist, used were valsartan (trade name: Diovan made by Novartis Pharma K.K.), losartan (trade name: Nu-Lotan made by MSD K.K.), olmesartan medoxomil (trade name: Olmetecmade by Daiichi Sankyo Co., Ltd.), azilsartan (trade name: Azilva made by Takeda Pharmaceutical Co., Ltd.), candesartan cilexetil (trade name: Blopress made by Takeda Pharmaceutical Co., Ltd.), and irbesartan (trade name: Avapro made by Sumitomo Dainippon Pharma Co., Ltd.). To the angiotensin II receptor antagonist group, a 0.5% methylcellulose aqueous solution prepared so as to contain valsartan (40 mg/kg), losartan (30 mg/kg), olmesartan medoxomil (5 mg/kg), azilsartan (10 mg/kg), candesartan cilexetil (8 mg/kg), or irbesartan (100 mg/kg) was orally given for 4 days before the start of the experiment (before the injection of tumor cells to mice). After the injection of tumor cells, the oral intake of methylcellulose aqueous solutions containing telmisartan or pitavastatin in the above doses in the angiotensin II receptor antagonist group and the pitavastatin group was continued until the end of the experiment. To the control group, a 0.5% methylcellulose aqueous solution not containing any of the agents was orally given before the start of the experiment. The sample size of each group was n=5. The condition of the lung metastasis of the tumor cells 2 weeks (14 days) after the tumor cell injection was observed."}, "[2]": {"tested_on": "Human lung arterial microvascular endothelial cells", "assay": "Adhesion of A549-GFP human lung cancer cells to human lung arterial microvascular endothelial cells in co-culture (Example 3)", "assay_type": "cell-based", "settings": "3 h co-culture", "method": "Human lung arterial microvascular endothelial cells were cultured to confluence, losartan was added thereto (to a final concentration of 5×10^−6 M), and 2 hours later, phosphate buffered saline (PBS) or cisplatin (CDDP) was added (to a final concentration of 5 μM). An hour later, the culture medium was replaced with a fresh culture medium (Medium 199 containing 1% BSA). To this, a suspension of fluorescently-labeled A549 human lung cancer cells (1×10^5 cells) was added, and the cells were co-cultured for 3 hours. After the co-culture, non-adherent cancer cells were washed out with cold PBS, and then 15-minute fixation with 4% formalin was performed. […] In FIG. 9A, spots which appear gray (actually green) are fluorescently-labeled A549-GFP human lung cancer cells. In FIG. 9B, white bars are for the control (without losartan pretreatment), and black bars are for the cases with losartan pretreatment. The vertical axis indicates the number of cancer cells that adhered (*: P<0.05).\nHuman lung arterial microvascular endothelial cells (manufactured by Lonza Japan) were cultured to confluence, losartan was added thereto (to a final concentration of 5×10^−6 M), and 2 hours later, phosphate buffered saline (PBS) or cisplatin (CDDP) was added (to a final concentration of 5 μM). […]"}, "renal cell carcinoma": {"tested_on": "renal cell carcinoma", "settings": "Non Patent Literature 23; cited from earlier work"}, "colon cancer cells": {"tested_on": "colon cancer cells", "settings": "Non Patent Literature 24; cited from earlier work"}, "Mouse melanoma B16-F10 [3]": {"tested_on": "Mouse melanoma B16-F10", "assay": "Tail vein injection metastasis test, mouse melanoma B16-F10 (Example 1)", "assay_type": "in vivo, mice", "method": "Six-week-old male C56BL/6N mice (purchased from Japan SLC, Inc.) were used. Mouse melanoma B16-F10 was purchased from ATCC, and cultured in DMEM (Life Technologies Corp.) containing 10% FCS under 5% CO2 at 37° C. The cells in a subconfluent state were treated with EDTA-trypsin, centrifuged, and then suspended in serum free DMEM so as to be 5×10^6 cells/mL. The melanoma cell suspension (100 μL/mouse, 5×10^5 cells) was injected to the tail vein of the mice.\nFor the CDDP group, 5 mg/kg of CDDP was injected, as pretreatment, to the tail vein of the mice 2 days before the injection of the melanoma cells into the tail vein. For the control group, an osmotic pump containing 0.9% physiological saline was subcutaneously implanted in the back of each mouse on the day before the injection of the melanoma cells into the tail vein. Similarly, for the adrenomedullin group, an osmotic pump containing adrenomedullin prepared for administration at 0.05 μg/kg/min was subcutaneously implanted into each mouse, and for the ghrelin group, an osmotic pump containing ghrelin prepared for administration at 0.08 μg/kg/min was subcutaneously implanted into each mouse. The tail vein injection of the melanoma cells was performed as above and the drug administration was continued for 2 weeks. The condition of the lung metastasis of the tumor cells 2 weeks after the tumor cell injection was observed (FIG. 1).\nTo the angiotensin II receptor antagonist group, a 0.5% methylcellulose aqueous solution prepared so as to contain 2 mg/kg or 8 mg/kg of telmisartan was orally given for 4 days before the start of the experiment (before the injection of tumor cells to mice), and to the pitavastatin group, a 0.5% methylcellulose aqueous solution prepared so as to contain 20 mg/kg of pitavastatin was orally given for the same period. After the injection of tumor cells, the oral intake of methylcellulose aqueous solutions containing telmisartan or pitavastatin in the above doses in the angiotensin II receptor antagonist group and the pitavastatin group was continued until the end of the experiment. To the control group, a 0.5% methylcellulose aqueous solution not containing any of the agents was orally given before the start of the experiment. Also, as reference example, angiotensin II was administered at 1 μg/kg/min, and then the experiment was conducted in the same way. The sample size of each group was n=5.\nIn contrast, in both of the telmisartan 2 mg/kg group and the telmisartan 8 mg/kg group, the exacerbation by CDDP was suppressed. The telmisartan 2 mg/kg (CDDP group) and the telmisartan 8 mg/kg (CDDP group) shown in FIGS. 3 and 4 are groups to which 2 mg/kg or 8 mg/kg of telmisartan was given in the manner described above before CDDP was injected as pretreatment. The pitavastatin (CDDP group) is the group to which pitavastatin was given in the manner described above before CDDP was injected as pretreatment."}, "E select in": {"tested_on": "E select in", "settings": "Non Patent Literature 29; cited from earlier work"}, "[4]": {"tested_on": "human umbilical vein endothelial cells (HUVECs)", "settings": "Non Patent Literature 29; cited from earlier work"}, "tumor": {"tested_on": "tumor", "settings": "Non Patent Literature 27; cited from earlier work"}},
  "data": [
    {"smiles": "CCCCc1nc(Cl)c(CO)n1Cc1ccc(-c2ccccc2-c2nn[nH]n2)cc1", "note": "[losartan]", "values": [
      {"measurement": "exacerbation of lung metastasis caused by CDDP", "setting": "Mouse melanoma B16-F10 [1]", "value": "significantly suppressed"},
      {"measurement": "adhesion of cancer cells to the vascular endothelial cells", "setting": "[2]; losartan 5×10^−6 M 2 hours before 5 μM CDDP pretreatment", "value": "significantly suppressed"},
      {"measurement": "lung metastasis of renal cell carcinoma increased by cyclosporin (Cs)", "setting": "renal cell carcinoma", "value": "suppressed"},
      {"measurement": "liver metastasis of colon cancer cells", "setting": "colon cancer cells", "value": "suppressed"}
    ]},
    {"smiles": "CCCCC1=NC2(CCCC2)C(=O)N1Cc1ccc(-c2ccccc2-c2nnn[nH]2)cc1", "note": "[irbesartan]", "values": [
      {"measurement": "exacerbation of lung metastasis caused by CDDP", "setting": "Mouse melanoma B16-F10 [1]", "value": "significantly suppressed"}
    ]},
    {"smiles": "CCCc1nc(C(C)(C)O)c(C(=O)OCc2oc(=O)oc2C)n1Cc1ccc(-c2ccccc2-c2nnn[nH]2)cc1", "note": "[olmesartan medoxomil]", "values": [
      {"measurement": "exacerbation of lung metastasis caused by CDDP", "setting": "Mouse melanoma B16-F10 [1]", "value": "significantly suppressed"}
    ]},
    {"smiles": "CCCc1nc2c(C)cc(-c3nc4ccccc4n3C)cc2n1Cc1ccc(-c2ccccc2C(=O)O)cc1", "note": "[telmisartan]", "values": [
      {"measurement": "exacerbation of lung metastasis by CDDP", "setting": "Mouse melanoma B16-F10 [3]; telmisartan 2 mg/kg orally before CDDP (5 mg/kg) pretreatment, 14 days", "value": "suppressed"},
      {"measurement": "exacerbation of lung metastasis by CDDP", "setting": "Mouse melanoma B16-F10 [3]; telmisartan 8 mg/kg orally before CDDP (5 mg/kg) pretreatment, 14 days", "value": "suppressed"},
      {"measurement": "lung metastasis of melanoma (number of nodules formed in the lungs)", "setting": "Mouse melanoma B16-F10 [3]; telmisartan 8 mg/kg orally, alone, 14 days after tumor cell injection, vs control", "value": "significantly suppressed"}
    ]},
    {"smiles": "CC[C@H](C)C(=O)O[C@H]1C[C@@H](C)C=C2C=C[C@H](C)[C@H](CC[C@@H]3C[C@@H](O)CC(=O)O3)[C@H]21", "note": "[lovastatin]", "values": [
      {"measurement": "E select in expression", "setting": "E select in", "value": "inhibits"},
      {"measurement": "adhesion of colon cancer cells to human umbilical vein endothelial cells (HUVECs)", "setting": "[4]", "value": "inhibits"}
    ]},
    {"smiles": "CCCCC(=O)N(Cc1ccc(-c2ccccc2-c2nnn[nH]2)cc1)[C@H](C(=O)O)C(C)C", "note": "[valsartan]", "values": [
      {"measurement": "exacerbation of lung metastasis caused by CDDP", "setting": "Mouse melanoma B16-F10 [1]", "value": "significantly suppressed"}
    ]},
    {"smiles": "O=C(O)C[C@H](O)C[C@H](O)/C=C/c1c(C2CC2)nc2ccccc2c1-c1ccc(F)cc1", "note": "[pitavastatin]", "values": [
      {"measurement": "exacerbation of the lung metastasis by CDDP", "setting": "Mouse melanoma B16-F10 [3]; pitavastatin 20 mg/kg orally before CDDP (5 mg/kg) pretreatment, 14 days", "value": "significantly suppressed"}
    ]},
    {"smiles": "[NH2][Pt]([NH2])([Cl])[Cl]", "note": "[CDDP, cisplatin]", "values": [
      {"measurement": "lung metastasis of melanoma (number of nodules formed in the lungs)", "setting": "Mouse melanoma B16-F10 [3]; CDDP 5 mg/kg tail vein 2 days before melanoma injection, compared to the control group", "value": "significantly increased"},
      {"measurement": "tumor metastasis (number of lung nodules)", "setting": "Mouse melanoma B16-F10 [1]; CDDP 5 mg/kg tail vein 2 days before melanoma injection, vs control", "value": "augmented"},
      {"measurement": "number of cancer cells adhered to the vascular endothelial cells", "setting": "[2]; 1-hour pretreatment with 5 μM CDDP", "value": "increased"}
    ]},
    {"smiles": "CCOc1nc2cccc(C(=O)OC(C)OC(=O)OC3CCCCC3)c2n1Cc1ccc(-c2ccccc2-c2nn[nH]n2)cc1", "note": "(stereo not shown) [candesartan cilexetil]", "values": [
      {"measurement": "exacerbation of lung metastasis caused by CDDP", "setting": "Mouse melanoma B16-F10 [1]", "value": "significantly suppressed"},
      {"measurement": "angiogenesis and metastasis of a tumor", "setting": "tumor", "value": "suppressed"}
    ]},
    {"smiles": "CCOc1nc2cccc(C(=O)O)c2n1Cc1ccc(-c2ccccc2-c2nc(=O)o[nH]2)cc1", "note": "[azilsartan]", "values": [
      {"measurement": "exacerbation of lung metastasis caused by CDDP", "setting": "Mouse melanoma B16-F10 [1]", "value": "significantly suppressed"}
    ]}
  ]
}
